Assays:
P388 = experiment: Cell proliferation assay GI50, drug sensitive P388; type: cell-based; conditions: Mus musculus; P388 (drug sensitive) cells
Method: (§1) All the cell lines were grown according to the conditions recommended by American Type Culture Collection. An aliquot of 90 μL of cells (2.2×10^4 cells/mL) was added to a well of a 96-well microtiter plate containing 10 μL of a 10% DMSO in RPMI-1640 media solution containing 1 nM to 100 μM of 4-(bicyclo[2.2.1]hept-5-en-2-yl)-1-(pyridin-2-ylmethylidene)thiosemicarbazide (0.1 nM to 10 μM final). An aliquot of 90 μL of cells was added to a well of a 96-well microtiter plate containing 10 μL of a 10% DMSO in RPMI-1640 media solution without compound as the control sample for maximal cell proliferation (AMax). The samples were mixed by agitation and then incubated at 37° C. for 48 h in a 5% CO2-95% humidity incubator. After incubation, the samples were removed from the incubator and 20 μL of CellTiter 96 AQUEOUS One Solution Cell Proliferation™ reagent (Promega) was added. […] Using an absorbance plate reader (Model 1420 Wallac Instruments), an initial reading (T=0) was made approximately 1-2 min after addition of the solution, employing absorbance at 490 nm. This determines the possible background absorbance of the test compounds. No absorbance for 4-(bicyclo[2.2.1]hept-5-en-2-yl)-1-(pyridin-2-ylmethylidene)thiosemicarbazide was found at 490 nm. After the 2-4 h incubation, the samples were read for absorbance as above (ATest). […]

ZR-75-1 = experiment: Caspase cascade activation (N-(Ac-DEVD)-N'-ethoxycarbonyl-R110 fluorogenic substrate) in ZR-75-1 cells; type: cell-based, human; conditions: 48 h incubation; for Caspase activity Ratio (net RFU of test compound to control): 0.016 to 10 μM final
Method: (§2) Human breast cancer cell lines T47D and ZR-75-1 were grown according to media component mixtures designated by American Type Culture Collection+10% FCS (Invitrogen Corporation), in a 5% CO2-95% humidity incubator at 37° C. T-47D and ZR-75-1 cells were maintained at a cell density between 50 and 80% confluency at a cell density of 0.1 to 0.6×10^6 cells/mL. Cells were harvested at 600×g and resuspended at 0.65×10^6 cells/mL into appropriate media+10% FCS. An aliquot of 45 μL of cells was added to a well of a 96-well microtiter plate containing 2.5 μL of a 10% DMSO in RPMI-1640 media solution containing 0.16 to 100 μM of 4-(bicyclo[2.2.1]hept-5-en-2-yl)-1-(pyridin-2-ylmethylidene)thiosemicarbazide or other test compound (0.016 to 10 μM final). An aliquot of 22.5 μL of cells was added to a well of a 384-well microtiter plate containing 2.5 μL of a 10% DMSO in RPMI-1640 media solution without test compound as the control sample. The samples were mixed by agitation and then incubated at 37° C. for 48 h in a 5% CO2-95% humidity incubator. After incubation, the samples were removed from the incubator and 25 μL of a solution containing 14 μM of N-(Ac-DEVD)-N′-ethoxycarbonyl-R110 (SEQ ID NO:1) fluorogenic substrate (Maxim Pharmaceuticals, Inc.; WO99/18856), 20% sucrose (Sigma), 20 mM DTT (Sigma), 200 mM NaCl (Sigma), 40 mM Na PIPES buffer pH 7.2 (Sigma), and 500 μg/ml lysolecithin (Calbiochem) was added. The samples were mixed by agitation and incubated at room temperature. Using a fluorescent plate reader (Model SpectraMax Gemini, Molecular Devices), an initial reading (T=0) was made approximately 1-2 min after addition of the substrate solution, employing excitation at 485 nm and emission at 530 nm, to determine the background fluorescence of the control sample. After the 3 h incubation, the samples were read for fluorescence as above (T=3 h).
(§3) The Relative Fluorescence Unit values (RFU) were used to calculate the sample readings as follows:
(§4) RFU(T=3 h)−Control RFU(T=0)=Net RFU(T=3 h)
(§5) The activity of caspase cascade activation was determined by the ratio of the net RFU value for 4-(bicyclo[2.2.1]hept-5-en-2-yl)-1-(pyridin-2-ylmethylidene)thiosemicarbazide or other test compound to that of control samples. The EC50 (nM) was determined by a sigmoidal dose-response calculation (Prism 2.0, GraphPad Software Inc.).

P388/ADR = experiment: Cell proliferation assay GI50, drug resistant P388/ADR; type: cell-based; conditions: Mus musculus; P388/ADR (drug resistant) cells
Method: as §1

MCF-7 = experiment: Cell proliferation assay GI50, MCF-7; type: cell-based; conditions: Homo sapiens, MCF7; MCF-7 cells, 48 h
Method: as §1

T47-D = experiment: Cell proliferation assay (CellTiter 96 AQUEOUS One) GI50, T47-D; type: cell-based; conditions: Homo sapiens, T47D; T47-D cells, 48 h
Method: as §1

K562 = experiment: Cell proliferation assay GI50, K562; type: cell-based; conditions: Homo sapiens; K562 cells, 48 h
Method: as §1

HeLa = experiment: Cell proliferation assay GI50, HeLa; type: cell-based; conditions: Homo sapiens; HeLa cells, 48 h
Method: as §1

NCI-H23 = experiment: Cell proliferation assay GI50, NCI-H23; type: cell-based; conditions: Homo sapiens; NCI-H23 cells, 48 h
Method: as §1

DLD-1 = experiment: Cell proliferation assay GI50, DLD-1; type: cell-based; conditions: Homo sapiens; DLD-1 cells, 48 h
Method: as §1

T-47D = experiment: Caspase cascade activation (N-(Ac-DEVD)-N'-ethoxycarbonyl-R110 fluorogenic substrate) in T-47D cells; type: cell-based, human; conditions: 48 h incubation; for Caspase activity Ratio (net RFU of test compound to control): 0.016 to 10 μM final; for EC50: Homo sapiens, T47D, read-out: Caspase potency EC50
Method: as §2, §3, §4, §5

PC-3 = experiment: Cell proliferation assay GI50, PC-3; type: cell-based; conditions: Homo sapiens; PC-3 cells, 48 h
Method: as §1

MDA-MB-231 = experiment: Cell proliferation assay GI50, MDA-MB-231; type: cell-based; conditions: Homo sapiens; MDA-MB-231 cells, 48 h
Method: as §1

SK-Br-3 = experiment: Cell proliferation assay GI50, SK-Br-3; type: cell-based; conditions: Homo sapiens; SK-Br-3 cells, 48 h
Method: as §1

| GI50 (P388) | EC50 (ZR-75-1; Homo sapiens, read-out: Caspase potency EC50) | GI50 (P388/ADR) | GI50 (MCF-7) | GI50 (K562) | GI50 (HeLa) | GI50 (NCI-H23) | GI50 (DLD-1) | EC50 (T-47D) | GI50 (PC-3) | GI50 (MDA-MB-231) | GI50 (SK-Br-3) | Caspase potency EC50 (ZR-75-1) | SMILES | Caspase activity Ratio (net RFU of test compound to control) (ZR-75-1) | GI50 (T47-D) | Caspase activity Ratio (net RFU of test compound to control) (T-47D) |
| --- | --- | --- | --- | --- | --- | --- | --- | --- | --- | --- | --- | --- | --- | --- | --- | --- |
| 20 nM | 862 nM | 20 nM | 7 nM | 50 nM | 60 nM | 30 nM | 90 nM | 360 nM | 30 nM | 30 nM | 5 nM |  | S=C(NN=Cc1ccccn1)NC1CC2C=CC1C2 (stereo not shown) [Example 16, 4-(Bicyclo[2.2.1]hept-5-en-2-yl)-1-(pyridin-2-ylmethylidene)thiosemicarbazide] | 3.0 | 5 nM | 3.5 |
|  |  |  | 300 nM | 3000 nM |  | 3000 nM | 1700 nM | 866 nM |  |  | 750 nM | INACTIVE | Cc1cccc(C=NNC(=S)NC2CC3C=CC2C3)n1 (stereo not shown) [Example 17, 4-(Bicyclo[2.2.1]hept-5-en-2-yl)-1-(6-methyl-pyridin-2-ylmethylidene)thiosemicarbazide] | 2.5 | 1000 nM | 3.3 |

— patent US6794400B2, “4-substituted-1-(arylmethylidene)thiosemicarbazide, 4-substituted-1-(arylcarbonyl)thiosemicarbazide and analogs as activators of caspases and inducers of apoptosis and the use thereof” (Cytovia, Inc., priority 2001, dated 2004)
